Reference: PMC10693084, “Novel 8-Methoxycoumarin-3-Carboxamides with potent anticancer activity against liver cancer via targeting caspase-3/7 and β-tubulin polymerization” (BMC Chemistry, 2023)
Blank lines part the entries; values can stand above or below the compound they belong to.

How the values were obtained:
[1] = test system: human liver carcinoma HepG2 cells; experiment: MTT cytotoxicity assay against HepG2 cells; type: cell-based; conditions: for Structure–activity summary of cytotoxic activity (Fig. 4B) / IC50: HepG2 cells; for IC50: MTT, 24 h treatment
Protocol: To assess the antitumor properties of these compounds, we utilized the 3-(4,5-dimethylthiazol-2-yl)-2,5-diphenyl tetrazolium bromide (MTT) colorimetric assay, a widely used method to evaluate cell viability and cytotoxicity.
Following the incubation period, the cells were subjected to various concentrations of the prepared molecules and subsequently incubated for a duration of 24 h. […] Subsequently, a volume of 100 μL of dimethyl sulfoxide (DMSO) was introduced into each well in order to facilitate the dissolution of the purple formazan that had been generated. The quantification of the color intensity of the formazan product, which serves as an indicator of the cellular growth condition, is performed by employing an ELISA plate reader set at a wavelength of 570 nm. The experimental conditions were implemented with a minimum of three replicates, and the experiments were conducted on at least three separate occasions.

SMILES: COc1cccc2cc(C(N)=O)c(=O)oc12 [Compound 4, 8-Methoxycoumarin-3-carboxamide]
Structure–activity summary of cytotoxic activity (Fig. 4B) [1]: moderate activity
IC50 [1]: 17.2 ± 1.05 µM
IC50 ([1]; Homo sapiens, HepG2, 24 h): 17 µM
HepG2-Cell Viability (%) ([1]; concentration LogC 0.19 (µM)): 65.8±1.73%
HepG2-Cell Viability (%) ([1]; concentration LogC 0.8 (µM)): 57.78±2.46%
HepG2-Cell Viability (%) ([1]; concentration LogC 1.4 (µM)): 47.29±3.09%
HepG2-Cell Viability (%) ([1]; concentration LogC 2 (µM)): 37.94±2.75%
HepG2-Cell Viability (%) ([1]; concentration LogC -0.41 (µM)): 75.81±1.48%
melting point: 253 °C

SMILES: COc1cccc2cc(C(=O)NC(C)=O)c(=O)oc12 [Compound 6, N-acetyl 8-methoxycoumarin-3-carboxamide]
Structure–activity summary of cytotoxic activity (Fig. 4B) [1]: moderate activity
HepG2-Cell Viability (%) ([1]; concentration LogC 0.19 (µM)): 54.47±1.72%
HepG2-Cell Viability (%) ([1]; concentration LogC 0.8 (µM)): 44.64±1.98%
HepG2-Cell Viability (%) ([1]; concentration LogC 1.4 (µM)): 37.53±2.14%
HepG2-Cell Viability (%) ([1]; concentration LogC 2 (µM)): 27.04±2.87%
HepG2-Cell Viability (%) ([1]; concentration LogC -0.41 (µM)): 59.86±1.33%
melting point: 285 °C

Second part, led by results:

melting point: 220 °C
SMILES: COc1ccc(Br)c2cc(C(=O)NC(C)=O)c(=O)oc12 [Compound 7, N-acetyl 5-bromo-8-methoxycoumarin-3-carboxamide]
Structure–activity summary of cytotoxic activity (Fig. 4B) [1]: improved activity
IC50 [1]: 2.57 ± 0.16 µM
IC50 ([1]; Homo sapiens, HepG2, 24 h): 2.3 µM
HepG2-Cell Viability (%) ([1]; concentration LogC 0.19 (µM)): 68.52±2.36%
HepG2-Cell Viability (%) ([1]; concentration LogC 0.8 (µM)): 60.52±2.64%
HepG2-Cell Viability (%) ([1]; concentration LogC 1.4 (µM)): 53.19±2.87%
HepG2-Cell Viability (%) ([1]; concentration LogC 2 (µM)): 45.03±3.1%
HepG2-Cell Viability (%) ([1]; concentration LogC -0.41 (µM)): 77.18±1.73%

melting point: 186 °C
SMILES: COc1cccc2cc(C(=O)O)c(=O)oc12 [Compound 8, 8-methoxycoumarin-3-carboxylic acid]
Structure–activity summary of cytotoxic activity (Fig. 4B) [1]: moderate activity
IC50 [1]: 5.18 ± 0.31 µM
IC50 ([1]; Homo sapiens, HepG2, 24 h): 5 µM

melting point: 210 °C
SMILES: COc1ccc(Br)c2cc(C(=O)O)c(=O)oc12 [Compound 9, 5-Bromo-8-methoxycoumarin-3-carboxylic acid]
Structure–activity summary of cytotoxic activity (Fig. 4B) [1]: attenuated activity
IC50 [1]: 41.6 ± 2.52 µM
IC50 ([1]; Homo sapiens, HepG2, 24 h): 41 µM
HepG2-Cell Viability (%) ([1]; concentration LogC 0.19 (µM)): 66.86±1.86%
HepG2-Cell Viability (%) ([1]; concentration LogC 0.8 (µM)): 55.34±2.24%
HepG2-Cell Viability (%) ([1]; concentration LogC 1.4 (µM)): 50.19±3.07%
HepG2-Cell Viability (%) ([1]; concentration LogC 2 (µM)): 42.17±2.94%
HepG2-Cell Viability (%) ([1]; concentration LogC -0.41 (µM)): 73.23±1.47%
